Data taken from publication PMC12426935, “On-Cell Saturation Transfer Difference NMR Spectroscopy on Ion Channels: Characterizing Negative Allosteric Modulator Binding Interactions of P2X7” (Journal of the American Chemical Society, 2025).
Where two headings read alike, the source gives them in different places.

Experiments:
rat P2X7 (rP2X7) = molecular target: T1, rat P2X7 (rP2X7) (Rattus norvegicus, UniProt Q64663); assay: fura-2 intracellular calcium assay on HEK-293 stable cell line expressing rat P2X7; type: cell-based; settings: Rat P2X7 (Table 1), n = 3
T1 construct: expressed in transfected cells
T1 sequence (Q64663 1-595): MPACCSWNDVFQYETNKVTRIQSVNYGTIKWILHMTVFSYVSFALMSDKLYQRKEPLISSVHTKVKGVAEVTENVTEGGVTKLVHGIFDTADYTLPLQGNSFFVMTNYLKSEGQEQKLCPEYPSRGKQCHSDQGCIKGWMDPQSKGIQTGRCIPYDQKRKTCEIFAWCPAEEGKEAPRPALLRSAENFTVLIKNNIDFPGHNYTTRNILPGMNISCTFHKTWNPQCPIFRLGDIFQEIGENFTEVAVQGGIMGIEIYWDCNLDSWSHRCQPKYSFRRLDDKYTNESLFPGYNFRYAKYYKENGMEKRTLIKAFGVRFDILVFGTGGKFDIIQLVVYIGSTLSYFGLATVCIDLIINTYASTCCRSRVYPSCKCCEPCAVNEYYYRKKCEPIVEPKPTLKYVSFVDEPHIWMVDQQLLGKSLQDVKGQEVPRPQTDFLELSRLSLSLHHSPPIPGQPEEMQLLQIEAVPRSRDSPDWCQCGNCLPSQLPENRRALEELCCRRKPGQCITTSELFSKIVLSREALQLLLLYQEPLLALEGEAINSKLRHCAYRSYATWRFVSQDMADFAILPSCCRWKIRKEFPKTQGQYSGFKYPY
Method: (§1) Genetically edited HEK-293 cells lacking P2Y2 receptors were used to generate stable cell lines expressing human P2X7 (hP2X7), mouse P2X7 (mP2X7), rat P2X7 (rP2X7), or mutants of the hP2X7 NAM site (F88A, M105A, and F103A). Transfection was performed using lipofectamine 2000 (Fisher Scientific), and cells were subjected to Geneticin (800 μg/mL) selection for 2–3 weeks. This was followed by single cell cloning by limiting dilution in 96-well plates. Individual clones were selected for further study based on ATP-induced TO-PRO-3 uptake on a BD Cytoflex flow cytometer. Cell lines were maintained in DMEM:F12 media supplemented with 10% fetal bovine serum (PanBiotech), penicillin and streptomycin (Fisher Scientific) and kept in a humidified incubator with 5% CO2. Stable P2X7-expressing cells were kept under Geneticin selection at a concentration of 400 μg/mL. Passaging was performed twice weekly using 0.25% Trypsin-EDTA (Fisher Scientific).
(§2) P2X7 responses were measured by monitoring intracellular calcium responses using fura-2AM loaded cells. Cells were plated at 2–2.5 × 10^4 cells/well the day before experiments in 96-well plates (NUNC) coated with 50 μg/mL poly-D-lysine (Merck Millipore). A loading buffer containing 2 μM fura-2AM (HelloBio) and 250 μM sulfinpyrazone (Merck Millipore) in a low divalent buffer (145 mM NaCl, 5 mM KCl, 0.2 mM CaCl2, 10 mM HEPES, 13 mM glucose, pH 7.3) was added to cells for 45 min at 37 °C. After loading, the buffer was removed and replaced with calcium-containing extracellular solution (145 mM NaCl, 5 mM KCl, 2 mM CaCl2, 10 mM HEPES, 13 mM glucose, pH 7.3). Responses were measured using a Flexstation 3 plate reader (Molecular Devices) with dual excitation wavelengths of 340 and 380 nm and single emission wavelength of 510 nm. The sample interval was 3.5 s, and each well was recorded for 180 s. Fura-2 ratios were calculated in Softmax Pro v5.4; zero baseline was applied, and responses were measured as normalized area under the curve (AUC). Dose inhibition curves were plotted using GraphPad Prism v6 nonlinear regression (three parameter fit) and log IC50 values reported.

mouse P2X7 (mP2X7) = molecular target: T2, mouse P2X7 (mP2X7) (Mus musculus, UniProt Q9Z1M0); assay: fura-2 intracellular calcium assay on HEK-293 stable cell line expressing mouse P2X7; type: cell-based; settings: Mouse P2X7 (Table 1); mean in brackets, n = 3
T2 construct: expressed in transfected cells
T2 sequence (Q9Z1M0 1-595): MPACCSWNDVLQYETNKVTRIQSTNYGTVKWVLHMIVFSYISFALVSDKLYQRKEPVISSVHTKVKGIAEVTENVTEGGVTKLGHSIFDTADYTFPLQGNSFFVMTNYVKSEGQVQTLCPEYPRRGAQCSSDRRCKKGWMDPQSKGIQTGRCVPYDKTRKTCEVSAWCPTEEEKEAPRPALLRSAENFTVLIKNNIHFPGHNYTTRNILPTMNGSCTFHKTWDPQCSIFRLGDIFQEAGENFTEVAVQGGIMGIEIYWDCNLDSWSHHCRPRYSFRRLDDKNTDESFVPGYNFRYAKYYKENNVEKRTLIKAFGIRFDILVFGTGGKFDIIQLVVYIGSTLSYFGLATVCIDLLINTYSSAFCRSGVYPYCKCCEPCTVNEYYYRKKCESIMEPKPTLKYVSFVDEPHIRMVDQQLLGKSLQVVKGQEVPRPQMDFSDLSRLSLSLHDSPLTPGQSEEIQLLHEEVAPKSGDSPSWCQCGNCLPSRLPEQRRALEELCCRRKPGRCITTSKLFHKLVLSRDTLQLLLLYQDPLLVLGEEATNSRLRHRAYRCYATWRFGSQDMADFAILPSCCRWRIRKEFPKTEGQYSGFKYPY
Method: as §1
as §2, with “Dose inhibition curves were plotted using GraphPad Prism v6 nonlinear regression (three parameter fit) and log IC50 values reported.” left out

- IC50 (rat P2X7 (rP2X7); log IC50 ± standard error, read-out: Log IC50 (converted)): 52.5 nM
- IC50 (rat P2X7 (rP2X7); mean in brackets, read-out: mean IC50): 53.1 nM
- IC50 (mouse P2X7 (mP2X7)): 524 nM
Structure (SMILES): O=C(CC12CC3CC(CC(C3)C1)C2)Nc1cccc2nc(NCCNCCO)ccc12 [AZ10606120]
